For test [1], the system named is S. mutans (ATCC #25175). Briefly: Inhibition of biofilm formation, crystal violet staining in saliva-coated 96-well plate. In kind it is cell-based, Streptococcus mutans. As to conditions: for Inhibition against biofilm formation (in words): 1 wt % glucose and 2 wt % Amadori compound, versus no Amadori compound; for Average absorbance (590 nm), amount of biofilm: test sample 1 wt % glucose and 2 wt % Amadori compound, co-incubated overnight at 37° C., lower absorbance = less biofilm. How it is done: In this Example, the ability of Amadori compound from the reaction of glucose with glycine to inhibit biofilm formation was investigated. A sample of cultured S. mutans (ATCC #25175) bacterium was grown in TSB medium overnight and subsequently centrifuged to form a pellet, and then the centrifuged S. mutans was re-suspended with TSB (trypticase soy broth) containing 1% glucose and adjusted to OD610=0.5 (a concentration with an optical reading of 0.5 at 610 nm for a 1-cm light path). A 50 microliter sample of the re-suspended S. mutans (OD610=0.5) was co-incubated with a 50 microliter test sample. The test sample contained 1 wt % of glucose and 2 wt % of Amadori compound from the reaction of glucose with glycine. The 100 μL total of the re-suspended S. mutans (OD610=0.5) and test sample, representing a clarified saliva, was co-incubated in a 96-well plate which was pre-coated with the clarified saliva and then left overnight at 37° C. After the co-incubation period, the supernatant liquid was aspirated from the well plate. A 50 microliter amount of crystal violet was added to each well and permitted to stain any biofilm for a period of 10 minutes. The well plate was washed with 100 μL of PBS. The amount of biofilm was determined by irradiating the well plate with electromagnetic radiation having a wavelength of 590 nm and measuring the absorbance. The lower the absorbance reading, the less the amount of biofilm detected.

Test [2] deals with S. mutans (ATCC #25175). Briefly: Inhibition of glucose metabolism with Streptococcus mutans (GC-MS of remaining α- and β-glucose). As to conditions: for Glucose inhibition (%) from Example 5: versus Comparative Example 1 (no Amadori compound). In kind it is cell-based. How it is done: In this Example, the ability of Amadori compound from the reaction of glucose with glycine to inhibit glucose metabolism with Streptococcus mutans was investigated. A stock glucose solution of 0.4 wt % glucose dissolved in distilled water (0.4 g/100 mL) was prepared. A stock Amadori compound from the reaction of glucose with glycine solution of 4.0 wt % Amadori compound from the reaction of glucose with glycine dissolved in distilled water (0.4 g/10 mL) was prepared. A bacterial solution was prepared as follows: S. mutans (ATCC #25175) was cultured overnight in TSB medium and then the resultant bacterial pellet was re-suspended bacterial to OD610=0.8 (a concentration with an optical reading of 0.8 at 610 nm for a 1-cm light path) with phosphate buffered saline (pH=7.4) (PBS). In accordance with Example 5, a test sample comprising 1 mL of the bacterial solution, 0.5 mL of the Amadori compound from the reaction of glucose with glycine solution and 0.5 mL of the glucose solution was subjected to incubation at a temperature of 37° C., representing normal human body temperature. Then, 200 μL of the test sample was transferred into individual HPLC vials after 10 minutes of the incubation period, after 30 minutes of the incubation period, and after 60 minutes of the incubation period. The HPLC vial cap was used to seal the vial. Immediately the HPLC vials were placed in a 100° C. water bath for about 5 minutes to denaturize the enzymes. The resultant products were subjected to gas chromatography-mass spectrometry (GC-MS) testing and analysis to determine the amounts of the α- and β-glucose forms present. In Table 1, the number of counts during MS detection for each respective α- and β-glucose form detected in the respective sample at the respective incubation time is indicated, the number of counts representing the amount of the respective glucose form present. In Comparative Example 1, the testing of Example 5 was repeated but on a control sample comprising 1 mL of the bacterial solution, 0.5 mL of the glucose solution and 0.5 mL of deionized water. In other words, Comparative Example 1 had no Amadori compound from the reaction of glucose with glycine. The control sample was also subjected to incubation at a temperature of 37° C. for the same respective time periods.

The mark [3] stands for this setting: 10 minutes incubation at 37° C., same sample.
The mark [4] stands for this setting: 30 minutes incubation at 37° C., same sample.
[5] abbreviates: 60 minutes incubation at 37° C., same sample.

Structures are written as SMILES.

On to `N=C(N)NCCC[C@H](NCC(=O)[C@@H](O)[C@H](O)[C@H](O)CO)C(=O)O` [Example 2, N-(1-deoxy-fructos-1-yl) arginine], for which the “Inhibition against biofilm formation (in words)” value in the test on S. mutans (ATCC #25175) [1] (listed as Amadori compound from the reaction of glucose with arginine) is recorded as “relatively weak inhibition”. Further, the “Average absorbance (590 nm), amount of biofilm” value (shortened to “Average absorbance (590 nm)”) with S. mutans (ATCC #25175) [1] was 1.2808.

As for `O=C(O)CNCC(=O)[C@@H](O)[C@H](O)[C@H](O)CO` [Example 1, N-(1-deoxy-fructos-1-yl)glycine], the “α-glucose, number of counts during MS detection” value came to 1753564 counts with S. mutans (ATCC #25175) [2] (10 minutes incubation at 37° C., 1 mL bacterial solution + 0.5 mL 4.0 wt % compound solution + 0.5 mL 0.4 wt % glucose solution); 1912144 counts with S. mutans (ATCC #25175) [2] (setting [4]); 1724203 counts in the test with S. mutans (ATCC #25175) [2] (setting [5]). Besides, the “Total glucose (α + β), number of counts during MS detection” value is listed as 5564912 counts in the test on S. mutans (ATCC #25175) [2] (setting [3]), 6220880 counts in the test with S. mutans (ATCC #25175) [2] (setting [4]) and 5403991 counts in the test with S. mutans (ATCC #25175) [2] (setting [5]). The “β-glucose, number of counts during MS detection” value in the test with S. mutans (ATCC #25175) [2] (setting [3]) is given as 3811348 counts; in the test on S. mutans (ATCC #25175) [2] (setting [4]), 4308736 counts; with S. mutans (ATCC #25175) [2] (setting [5]), 3679788 counts. The entries for the “Glucose inhibition (%) from Example 5” value with S. mutans (ATCC #25175) [2] (10 minutes incubation), in the test on S. mutans (ATCC #25175) [2] (30 minutes incubation) and in the test with S. mutans (ATCC #25175) [2] (60 minutes incubation) were 56.4%, 59.9% and 70.1%, respectively. Besides, the “Inhibition of glucose metabolization / degradation (in words)” value in the test with S. mutans (ATCC #25175) [2] (co-incubated with S. mutans and glucose, versus no Amadori compound) was “inhibited glucose metabolization”. For the same molecule, the “Inhibition of glucose metabolism” value in the test on S. mutans (ATCC #25175) [2] (within the incubation time period of from 10 to 60 minutes) is reported as “at least 56%”. For the same molecule, the “Inhibition against biofilm formation (in words)” value in the test on S. mutans (ATCC #25175) [1] (listed as Amadori compound from the reaction of glucose with glycine) is listed as “very strong inhibition”. For the same molecule, in the test with S. mutans (ATCC #25175) [1], the “Average absorbance (590 nm)” value came out at 0.2885.

`O=C(O)CC[C@H](NCC(=O)[C@@H](O)[C@H](O)[C@H](O)CO)C(=O)O` [Example 4, N-(1-deoxy-fructos-1-yl)glutamic acid]: the “Inhibition against biofilm formation (in words)” value with S. mutans (ATCC #25175) [1] (listed as Amadori compound from the reaction of glucose with glutamic acid) is “very strong inhibition”. The “Average absorbance (590 nm)” value in the test on S. mutans (ATCC #25175) [1] turned out to be 0.5476.

The values above are taken from patent US9993414B2, “Oral care composition comprising an Amadori compound” (Colgate-Palmolive Company, priority 2012, dated 2018).
